In PubChem BioAssay (NCI):
“And” between values parts separate entries of the source, which are not always exact repeats. Equal entries are not always repeated.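 Each compound was tested at five concentrations against cells in 96-well plates for 48 hours. GI50: concentration for 50% inhibition of growth. TGI is the concentration that stops growth completely.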

How the values were obtained:
Test in all cases: NCI tumour cell line growth inhibition, 48 h
[1] = system: BT-549 breast
[2] = system: CAKI-1 renal
[3] = system: HS 578T breast
[4] = system: HT29 colon
[5] = system: K-562 leukemia
[6] = system: MDA-N
[7] = system: OVCAR-3 ovarian
[8] = system: PC-3 prostate
[9] = system: RPMI-8226 leukemia
[10] = system: U251 CNS
[11] = system: UACC-257 melanoma

## CCOC(=O)C(NC(=O)CC(C)C)(Nc1ccc(S(=O)(=O)Nc2nc(C)cc(C)n2)cc1)C(F)(F)F (stereo unspecified)
[1]
  TGI: > 100 µM
[2]
  TGI: > 100 µM
[3]
  TGI: > 100 µM
[4]
  TGI: > 100 µM
[5]
  TGI: > 100 µM
[6]
  TGI: > 100 µM
[7]
  TGI: > 100 µM
[8]
  TGI: > 100 µM
[9]
  TGI: > 100 µM
[10]
  TGI: > 100 µM
[11]
  TGI: > 100 µM

## Cc1ccc(S(=O)(=O)NC2C(=O)c3ccccc3C(=O)C2n2cnc3ccccc32)cc1 (stereo unspecified)
[1]
  TGI: > 100 µM
[2]
  TGI: > 100 µM
[3]
  TGI: > 100 µM
[4]
  TGI: > 100 µM
[5]
  TGI: > 100 µM
[6]
  TGI: 45.5 µM
[7]
  TGI: 15.4 µM
[8]
  TGI: 64.3 µM
[9]
  TGI: > 100 µM
[10]
  TGI: > 100 µM
[11]
  TGI: > 100 µM

## COc1cc(C2c3cc4c(cc3OC(Nc3ccccc3)C2C)OCO4)cc(OC)c1OC (stereo unspecified)
[1]
  TGI: > 90.9 µM
[2]
  TGI: > 100 µM
[3]
  TGI: > 78.5 µM
[4]
  TGI: > 100 µM
[5]
  TGI: > 100 µM
[6]
  TGI: 0.784 µM
[8]
  TGI: > 100 µM
[9]
  TGI: > 100 µM
[10]
  TGI: 21.3 µM
[11]
  TGI: > 86.2 µM

## N#Cc1c(Cl)c2ccccc2n2c1nc1ccccc12
[1]
  TGI: > 100 µM
[2]
  TGI: 51.4 µM
[3]
  TGI: 63.1 µM
[4]
  TGI: 35.7 µM
[5]
  TGI: > 100 µM
[6]
  TGI: > 100 µM
[7]
  TGI: > 100 µM
[8]
  TGI: > 100 µM
[9]
  TGI: 72.7 µM
[10]
  TGI: > 100 µM
[11]
  TGI: > 100 µM

## CCSC1=N/C(=C\c2ccco2)C(Cl)=N1
[1]
  TGI: > 100 µM
[2]
  TGI: > 100 µM
[3]
  TGI: > 100 µM
[4]
  TGI: > 100 µM
[5]
  TGI: > 100 µM
[6]
  TGI: > 100 µM
[7]
  TGI: > 100 µM
[8]
  TGI: > 100 µM
[9]
  TGI: > 100 µM
[10]
  TGI: > 100 µM
[11]
  TGI: > 100 µM

## O=c1oc2ccccc2c(O)c1C(c1ccc(/C=C/c2ccccc2)cc1)c1c(O)c2ccccc2oc1=O
[1]
  TGI: 56.2 µM
[2]
  TGI: 61.3 µM
[3]
  TGI: 75.4 µM
[4]
  TGI: 37.2 µM
[5]
  TGI: > 100 µM
[6]
  TGI: 43.9 µM
[7]
  TGI: > 100 µM
[8]
  TGI: > 100 µM
[9]
  TGI: > 100 µM
[10]
  TGI: 43.9 µM
[11]
  TGI: > 100 µM

## C=C1CC(C)(COc2ccc3ccc(=O)oc3c2)OC1=O (stereo unspecified)
[1]
  TGI: 2.65 µM
[2]
  TGI: 7.84 µM
[3]
  TGI: 24.3 µM
[4]
  TGI: 9.66 µM
[5]
  TGI: 32.1 µM
[6]
  TGI: 13.8 µM
[7]
  TGI: 17.2 µM
[8]
  TGI: 16.2 µM
[9]
  TGI: 4.7 µM
[10]
  TGI: 27.1 µM
[11]
  TGI: 2.58 µM

## NNc1nc2ccccc2s1
[1]
  TGI: > 100 µM
[2]
  TGI: > 100 µM
[3]
  TGI: > 100 µM
[4]
  TGI: > 100 µM
[5]
  TGI: > 100 µM
[6]
  TGI: > 100 µM
[8]
  TGI: > 100 µM
[9]
  TGI: > 100 µM
[10]
  TGI: > 100 µM
[11]
  TGI: > 100 µM

## CCOC(=O)c1c(-c2ccc(O)c(OC)c2)c(C#N)c(=S)n(C2OC(COC(C)=O)C(OC(C)=O)C(OC(C)=O)C2OC(C)=O)c1-c1ccccc1 (stereo unspecified)
[1]
  TGI: > 100 µM
[2]
  TGI: > 100 µM
[3]
  TGI: > 100 µM
[4]
  TGI: > 100 µM
[5]
  GI50: 49.1 µM and > 100 µM
  TGI: > 100 µM
[6]
  TGI: > 100 µM
[7]
  GI50: 21.6 µM and 56.8 µM
  TGI: 48.4 µM and > 100 µM
[8]
  TGI: > 100 µM
[9]
  TGI: > 100 µM
[10]
  TGI: > 100 µM
[11]
  TGI: > 100 µM

## O=c1[nH]nc(Cc2ccccc2)n1/N=C/c1ccccc1Cl
[1]
  TGI: > 100 µM
[2]
  TGI: > 100 µM
[3]
  TGI: > 100 µM
[4]
  TGI: > 100 µM
[5]
  TGI: > 100 µM
[6]
  TGI: > 100 µM
[7]
  TGI: > 100 µM
[8]
  TGI: > 100 µM
[9]
  TGI: > 100 µM
[10]
  TGI: > 100 µM
[11]
  TGI: > 100 µM

## O=C(O)c1ccc(Nc2nc3ccccc3nc2-c2cccs2)cc1
[1]
  TGI: > 100 µM
[2]
  TGI: > 100 µM
[3]
  TGI: > 100 µM
[4]
  TGI: > 100 µM
[5]
  TGI: > 100 µM
[6]
  TGI: > 100 µM
[7]
  TGI: > 100 µM
[8]
  TGI: > 100 µM
[9]
  TGI: > 100 µM
[10]
  TGI: > 100 µM
[11]
  TGI: > 100 µM

## COc1cccc2c(Nc3ccc(S(=O)(=O)NC(C)=O)cc3)c3ccc([N+](=O)[O-])cc3nc12
[1]
  TGI: > 56 µM
[2]
  TGI: > 100 µM
[3]
  TGI: > 100 µM
[4]
  TGI: 28.5 µM
[5]
  TGI: > 84.7 µM
[6]
  TGI: > 100 µM
[7]
  TGI: > 90.4 µM
[8]
  TGI: > 100 µM
[9]
  TGI: > 100 µM
[10]
  TGI: > 53.5 µM
[11]
  TGI: > 54.9 µM

## CCN(CC)C(=S)SNCc1ccc(S(N)(=O)=O)cc1
[1]
  TGI: 33 µM
[2]
  TGI: 31.3 µM
[3]
  TGI: 50.4 µM
[4]
  TGI: 21 µM
[5]
  TGI: > 100 µM
[6]
  TGI: 29 µM
[7]
  TGI: 27.5 µM
[8]
  TGI: 26.1 µM
[9]
  TGI: 22.8 µM
[10]
  TGI: 15.8 µM
[11]
  TGI: 33.5 µM

## CC(=O)OC1COC(n2c(-c3ccc(Cl)cc3)cc(-c3ccccc3)c(C#N)c2=S)C(OC(C)=O)C1OC(C)=O (stereo unspecified)
[1]
  TGI: > 81.8 µM
[2]
  TGI: 50 µM
[3]
  TGI: 24.6 µM
[4]
  TGI: > 64.6 µM
[5]
  TGI: > 59.8 µM
[6]
  TGI: > 100 µM
[7]
  TGI: 18.2 µM
[8]
  TGI: 46.3 µM
[9]
  TGI: > 100 µM
[10]
  TGI: 15.5 µM
[11]
  TGI: > 100 µM

## COC(=O)C(=O)C(C(=O)C(=O)Nc1ccccc1C(C)=O)c1nc2ccc(C(=O)c3ccccc3)cc2[nH]c1=O (stereo unspecified)
[1]
  TGI: > 100 µM
[2]
  TGI: > 100 µM
[3]
  TGI: > 100 µM
[4]
  TGI: > 100 µM
[5]
  TGI: > 100 µM
[6]
  TGI: > 100 µM
[7]
  TGI: > 100 µM
[8]
  TGI: > 100 µM
[9]
  TGI: > 100 µM
[11]
  TGI: > 100 µM

## COc1ccc(C(c2c[nH]c3ccc(Br)cc23)c2c[nH]c3ccc(Br)cc23)cc1
[1]
  TGI: 3.16 µM
[2]
  TGI: 1.64 µM
[3]
  TGI: 3.81 µM
[4]
  TGI: 1.03 µM
[5]
  TGI: 0.423 µM
[6]
  TGI: 0.552 µM
[7]
  TGI: 0.52 µM
[8]
  TGI: 0.843 µM
[9]
  TGI: 0.543 µM
[10]
  TGI: 0.557 µM
[11]
  TGI: 0.947 µM

## CC1(C)CCCCCCC2OC2CCCCCC(C)(C)C1=O (stereo unspecified)
[1]
  TGI: > 76.6 µM
[2]
  TGI: > 100 µM
[3]
  TGI: > 100 µM
[4]
  TGI: > 60.5 µM
[5]
  TGI: > 82.6 µM
[6]
  TGI: > 100 µM
[7]
  TGI: > 100 µM
[8]
  TGI: > 94.6 µM
[9]
  TGI: > 95 µM
[10]
  TGI: 63.2 µM
[11]
  TGI: > 93.5 µM
